Laboratory results: patent publication US20260115144A1, “THERAPEUTIC NANOPARTICLES ENCAPSULATING TERPENOIDS AND/OR CANNABINOIDS” (priority 2018, published 2026)

How the values were obtained:
[1] = cited from earlier work
TRPV1 receptors = target: T1, TRPV1 receptors (Rattus norvegicus, UniProt O35433); experiment: Calcium signaling assay (Fluo-4) in HEK TRPV1 cells; assay type: cell-based; details: 40 μg/ml, 1 h
T1 construct: expressed in transfected cells; host or cells: HEK TRPV1 cells (Helen Turner lab, Chaminade University of Honolulu), kept under geneticin
T1 sequence (O35433 whole entry): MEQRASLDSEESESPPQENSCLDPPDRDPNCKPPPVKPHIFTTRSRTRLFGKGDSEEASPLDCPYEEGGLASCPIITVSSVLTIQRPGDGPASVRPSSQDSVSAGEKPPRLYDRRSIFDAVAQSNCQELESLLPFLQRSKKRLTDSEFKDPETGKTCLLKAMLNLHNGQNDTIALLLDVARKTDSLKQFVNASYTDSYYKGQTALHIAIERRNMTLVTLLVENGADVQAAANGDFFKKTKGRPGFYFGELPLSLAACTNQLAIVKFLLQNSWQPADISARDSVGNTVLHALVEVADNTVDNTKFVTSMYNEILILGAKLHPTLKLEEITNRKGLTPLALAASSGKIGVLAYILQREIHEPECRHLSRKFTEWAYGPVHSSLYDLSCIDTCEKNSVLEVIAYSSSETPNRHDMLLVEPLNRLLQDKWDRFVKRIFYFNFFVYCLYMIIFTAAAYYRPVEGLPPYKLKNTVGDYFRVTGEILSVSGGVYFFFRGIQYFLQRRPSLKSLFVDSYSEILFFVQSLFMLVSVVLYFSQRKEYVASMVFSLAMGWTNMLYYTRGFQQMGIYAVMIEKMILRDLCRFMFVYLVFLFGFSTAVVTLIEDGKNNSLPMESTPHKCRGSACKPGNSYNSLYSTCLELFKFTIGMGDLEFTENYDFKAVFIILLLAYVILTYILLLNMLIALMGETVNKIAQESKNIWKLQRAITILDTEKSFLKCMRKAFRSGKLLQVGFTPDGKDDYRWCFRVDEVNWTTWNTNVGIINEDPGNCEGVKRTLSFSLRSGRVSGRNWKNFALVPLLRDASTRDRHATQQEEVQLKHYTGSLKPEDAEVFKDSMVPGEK
Method: HEK TRPV1 cells were provided by the Helen Turner lab at Chaminade University of Honolulu and maintained in MEM essential medium supplemented with 10% FBS, 50 units/ml-50 μg/ml Penicillin-Streptomycin, and 0.6 mg/ml geneticin.
HEK TRPV1 cells were harvested with trypsin, deactivated with media, and counted. Cells were centrifuged at 1000 rpm, for 5 min, at room temperature. Cells were washed twice with 1 mM Ca Assay Buffer (Na Ringers [140 mM NaCl, 2.8 mM KCl, 2 mM MgCl2, 11 mM glucose, 10 mM HEPES], 2 mM Probenecid, 1 mM CaCl2); pH 7.4), and collected by centrifugation at 1000 rpm, for 5 min, at room temperature. Cells were resuspended in 1 μM Fluo-4 (1 μl of 5 mM Fluo-4, mixed with 1 μl of 20% Pluronic F-127 in DMSO, then 5 ml of 1 mM Ca Assay Buffer was added and the mixture incubated at 37° C. for 10 min in the dark), and incubated for 30 min at 37° C. in the dark. Cells were then washed twice with 1 mM Ca assay buffer, then resuspended in the assay buffer and pipetted to opaque-walled 96-well plates at a density of 150,000 cells/180 μl/well. Fluorescence was measured using a plate reader (Synergy HTX, BioTek, USA), at an excitation wavelength of 485 nm and an emission wavelength of 528 nm. Once a baseline was established (3 measurements), 20 μl of the stimulant (free terpenoids, terpenoids-loaded NPs, and controls) solution was added to each well and measurement was continued for 1 h with one read every 40 seconds.
All solutions were prepared in 1 mM Ca Assay Buffer. Free terpenoids were first dissolved in DMSO, then a specific volume was diluted with the assay buffer to produce the required concentration. […]
A calcium signaling assay was utilized to evaluate the ion influx into HEK TRPV1 cells. Cells were dispersed in 1 mM calcium assay buffer and the intracellular calcium levels were measured using a plate reader in the presence of Fluo-4, as the fluorophore. […] Fluorescence changes in response to the free terpenoids, encapsulated terpenoids, and combinations of free and encapsulated terpenoids were detected and compared.

TRPV1 = TRPV1 (Homo sapiens, UniProt Q8NER1); details: described in PCT/US2018/033956; cited from earlier work
TRPV1, sequence (Q8NER1 whole entry, species assumed): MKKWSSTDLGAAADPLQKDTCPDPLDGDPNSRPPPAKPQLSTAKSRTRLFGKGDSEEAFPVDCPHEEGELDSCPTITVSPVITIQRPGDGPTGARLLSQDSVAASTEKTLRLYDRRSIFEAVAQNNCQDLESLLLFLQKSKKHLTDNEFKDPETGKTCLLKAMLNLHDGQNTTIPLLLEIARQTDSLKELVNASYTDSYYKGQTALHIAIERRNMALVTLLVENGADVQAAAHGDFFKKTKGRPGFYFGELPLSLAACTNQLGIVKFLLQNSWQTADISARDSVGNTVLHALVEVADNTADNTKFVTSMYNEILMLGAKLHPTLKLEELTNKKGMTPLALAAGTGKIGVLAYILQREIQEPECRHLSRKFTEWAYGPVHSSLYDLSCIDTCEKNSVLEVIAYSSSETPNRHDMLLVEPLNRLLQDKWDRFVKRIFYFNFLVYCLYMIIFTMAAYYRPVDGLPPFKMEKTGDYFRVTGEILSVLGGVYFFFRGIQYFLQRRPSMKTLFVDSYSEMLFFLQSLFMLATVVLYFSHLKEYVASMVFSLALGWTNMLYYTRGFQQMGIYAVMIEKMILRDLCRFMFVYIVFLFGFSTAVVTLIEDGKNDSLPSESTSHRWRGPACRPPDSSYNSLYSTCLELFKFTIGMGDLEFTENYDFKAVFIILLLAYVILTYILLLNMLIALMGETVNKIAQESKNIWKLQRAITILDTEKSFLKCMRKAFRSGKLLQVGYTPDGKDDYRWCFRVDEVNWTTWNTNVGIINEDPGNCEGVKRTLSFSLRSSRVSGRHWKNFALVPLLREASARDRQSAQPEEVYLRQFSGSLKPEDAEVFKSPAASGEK

[2] = Loss of myrcene during lyophilization for 24 h (weighing); assay type: physicochemical; details: lyophilized for 24 h; starting weight 8 or 48 mg
Method: To investigate whether myrcene is lost during lyophilization, 3 samples of either free myrcene, a mixture of myrcene and water, or a mixture of myrcene, water and PLGA were prepared in duplicate as illustrated in Table 16. Samples were lyophilized for 24 h. The vials containing the samples were weighed before and after lyophilization to calculate the weight of the dried sample.

## C=CC(=C)CCC=C(C)C [myrcene, 7-methyl-3-methylideneocta-1,6-diene]
[1]; at 25° C.
  Vapor pressure: 2.09 mm Hg
[1]
  Solubility in water: not soluble in water
TRPV1 receptors
  Calcium response (fluorescence change), non-encapsulated individual terpenoids: most intense response
TRPV1
  TRPV1 agonist activity: TRPV1 agonist that causes TRPV1 desensitization after prolonged exposure

## C=C1CC/C=C(\C)CC[C@@H]2[C@@H]1CC2(C)C [β-caryophyllene, (1R,4E,9S)-4,11,11-Trimethyl-8-methylidenebicyclo[7.2.0]undec-4-ene]
TRPV1 receptors
  Calcium response (fluorescence change), non-encapsulated individual terpenoids: lowest calcium responses

## C=CC(=C)CCC=C(C)C [Formula F42]
[2]
  Weight after lyophilization: 0.88 mg

## C=CC(C)(O)CCC=C(C)CCC=C(C)C (stereo not shown) [nerolidol, 3,7,11-Trimethyl-1,6,10-dodecatrien-3-ol]
TRPV1 receptors
  Calcium response (fluorescence change), non-encapsulated individual terpenoids: induced a calcium response
